Data reported in paper PMC10675077, “Antimicrobial Properties of New Polyamines Conjugated with Oxygen-Containing Aromatic Functional Groups” (Molecules, 2023).
In brackets after ≈: the same amount, converted by molar mass.

Key:
yeast cells = experiment: Intracellular ATP by luciferase bioluminescence, yeast; format: cell-based, Saccharomyces cerevisiae; conditions: overnight treatment
Protocol: The procedure described by Lehtinen et al. was followed, with the modifications indicated herein. In the case of bacteria, 1.5 OD600 units were incubated overnight in 1 mL of final volume with 5-fold MIC concentrations. Then, the cells were collected, washed 3 times in 20 mM phosphate buffer pH 7.4, and lysed in 200 μL of LS1 (50 mM of glucose, 25 mM of Tris-HCl pH 8.0, and 10 mM of EDTA pH 8.0) containing 5 mg/mL of lysozyme and the same volume of glass beads (425–600 μm), by stirring 10 times for 15 s each. Then, the solution was centrifuged at 14,800× g for 15 min, and the supernatant was used for a luciferase assay. For this purpose, in each well of a microtiter plate, 100 μL of luciferase assay buffer (0.015 M of MgSO4, 0.015 M of KH2PO4 pH 8, 0.004 M of EGTA pH 8, and 2 mM of DTT) was added together to a 50 μL of 0.3 mg/mL luciferin solution in 0.01% (w/v) Triton X-100 and 50 μL of the cell extract. Finally, 15 μL of a 67 μg/mL aqueous solution of luciferase was added. Light emission was immediately detected using a Luminoskan Ascent instrument (Thermo Scientific, Waltham, MA, USA) for 1 s per well. Glass beads, lysozyme, luciferin, and luciferase were purchased from Sigma-Aldrich.
[…] Then, cells were collected and washed as above and resuspended in 500 μL of LS2 (140 mM of NaCl, 1.5 mM of MgCl2, 10 mM of Tris-HCl pH 8.0, and 0.5% (v/v) NP40). Cells were lysed in the presence of 1 volume of glass beads as described above. The next steps were carried out as in the case of bacterial samples.
Experiments were carried out at least in triplicate in all cases, and control drugs and SDS (0.1% (w/v) of the final concentration) were also included.

S. aureus = experiment: Lytic activity, time-kill (OD600), S. aureus; format: cell-based, Staphylococcus aureus; conditions: 5 times the MIC
Protocol: (§1) To determine if the compounds showing microbicidal activity induce cell lysis, the procedure described by Fleeman et al. was followed, with the modifications indicated below. The E. coli and S. aureus strains were grown as in the experiments described earlier. The cells corresponding to 1.5 units of OD600 were collected and resuspended in 1% BP after washing in the same medium. They were incubated in a final volume of 1 mL with concentrations 5 times higher than the MIC of the analysed compounds, and OD600 was monitored over time. Other antimicrobial compounds were also used in this study as controls. The experiments were performed in triplicate.

[1] = tested on: Staphylococcus aureus BHI; experiment: MIC, microdilution in culture medium, S. aureus; format: cell-based; conditions: Staphylococcus aureus; 20 h, 37 °C; average of at least three experiments; read-out: MIC, Bacteria, S. aureus BHI
Description: (§2) The microorganisms used for the susceptibility tests were the bacteria Escherichia coli JM101 and Staphylococcus aureus BHI, and the yeast Saccharomyces cerevisiae strains BY4741 (MAT a his3Δ1 leu2Δ0 met15Δ0 ura3Δ0 (EUROSCARF)) carrying YEplac195 (from EUROSCARF) or YEPlac195-PDR5 (provided by Ayse Banu Demir, Izmir University of Economics, Turkey) plasmids.
(§3) Bacterial strains were usually maintained and grown in an LB medium (0.5% (w/v) yeast extract, 1% (w/v) bactotryptone, and 1% (w/v) NaCl) at 37 °C. For MIC (minimal inhibitory concentration) and MMC (minimal microbicidal concentration) assays, and for the determination of synergies, overnight growth was carried out in 2% (w/v) bactopeptone (BP), and then the cultures were diluted and incubated for several hours in 2% (w/v) BP for ensuring logarithmic growth. Yeast strains were grown in an SC-ura medium (0.17% (w/v) yeast nitrogen base without amino acids and ammonium sulphate, 0.2% (w/v) drop-out without uracil, 0.5% (w/v) (NH4)2SO4, and 2% (w/v) glucose) at 30 °C. Liquid cultures were incubated with shaking (200 rpm). Solid media also contained 2% (w/v) agar.
(§4) For the analysis of the antimicrobial activity, the strategies and indications of Cushnie et al. were considered. The standardised method of microdilution in a culture medium was followed to determine the MIC [55]. In bacterial strains, serial dilutions of the compounds to be tested and the control antibiotics were prepared in phosphate buffer (20 mM, pH 7.4, 0.5 mL) and were mixed with a suspension of bacterial cells in a logarithmic growth phase (in 1% BP, 0.5 mL). The final OD600 of the whole solutions were 0.004 and 0.008 for E. coli and S. aureus cultures, respectively. After 20 h of incubation at 37 °C with shaking, the MIC was determined as the lowest concentration of each compound in which no visible bacterial growth was observed.

Escherichia coli JM101 = experiment: MIC, microdilution in culture medium, E. coli; format: cell-based; conditions: Escherichia coli, JM101; 20 h, 37 °C; average of at least three experiments; read-out: MIC, Bacteria, E. coli JM101
Description: as §2, §3, §4

[2] = tested on: Saccharomyces cerevisiae BY4741/YEplac195; experiment: microbe, parasite or virus in culture; format: cell-based; conditions: Saccharomyces cerevisiae; 24 h, 30 °C; average of at least three experiments; read-out: MIC, Yeast, BY4741/ YEplac195
Description: as §2, §3
(§5) The determination of the MIC for yeast strains was carried out following a similar procedure to that of the polyamines and antifungal reference agents: Serial dilutions of each one in phosphate buffer (20 mM, pH 7.4, 0.5 mL) were prepared and mixed with a suspension of yeast cells (OD600 0.04 in SC-ura 2X (VWR, Atlanta, GA, USA), 0.5 mL). […] Experiments were carried out at least three times in all cases.

[3] = tested on: Saccharomyces cerevisiae BY4741/YEplac195-PDR5; experiment: microbe, parasite or virus in culture; format: cell-based; conditions: Saccharomyces cerevisiae, 24 h, read-out: MIC, Yeast, BY4741/ PDR5
Description: as §2, §3, §5

E. coli [4] = experiment: Lytic activity, time-kill (OD600), E. coli; format: cell-based, Escherichia coli; conditions: 5 times the MIC
Protocol: as §1

[5] = tested on: Yeast (S. cerevisiae strains); experiment: MIC, yeast (strain not specified); format: cell-based, Saccharomyces cerevisiae; conditions: Saccharomyces cerevisiae; yeast strain not specified (Tables 5 and 10); read-out: MIC Yeast
Protocol: as §5

S. cerevisiae strains = experiment: Minimal fungicidal concentration, S. cerevisiae strains; format: cell-based, Saccharomyces cerevisiae; conditions: fungistatic = growth on SC-ura plates after incubation at four times the MIC
Protocol: (§6) Once the MIC was known, the samples were prepared as described in the previous section with polyamine concentrations corresponding to the MIC and half, double, and four times its value. After overnight incubation with the microorganisms, 30 μL of a ten-fold dilution of each one was spread in LB (in the case of bacterial strains) or SC-ura (for yeast strains) plates. They were incubated for 20 h at 37 °C (bacteria) or 48 h at 30 °C (yeasts), and the level of growth was determined. […] Experiments were carried out at least three times.

E. coli [6] = experiment: Checkerboard titration synergy, E. coli; format: cell-based, Escherichia coli; conditions: synergistic when FICI ≤0.5
Protocol: (§7) The combined antimicrobial activity of the test compounds with the antibacterial or antifungal control agents was performed under the same conditions used for the MIC determination and following the procedures described by Carton Herrán, Reis de Sá et al. and Zharkova et al.. For each experiment, 16 samples (4 rows × 4 columns) in a total volume of 0.5 mL were prepared in tubes using an array of combinations between the MIC value and 0 μg/mL of the compound to be tested in each row, and between the MIC value and 0 μg/mL of the reference drug in each column. In this way, a variety of mixtures with different concentrations of them alone or in combination was obtained. Briefly, 0.5 mL of a microorganism culture was added to each one of the samples, and after incubation for 24 h with shaking at the appropriate temperature (37 °C or 30 °C), the tubs were visually inspected, and the OD600 was measured. From this information, the fractional inhibitory concentration index (FICI) was calculated according to the formula FIC index = ([A]/[CMI A]) + ([B]/[CMI B]), where [A] and [B] are respective concentrations of tested polyamine and reference drug in their combination effectively inhibiting the growth of bacteria or yeast, and [MIC A] and [MIC B] are the individual MICs of the tested polyamine and reference drug when they are used alone. An interaction is considered synergistic when the FICI value is ≤0.5 [41, 42].
(§8) To confirm the data obtained in the checkerboard assay, 30 μL of a ten-fold dilution of the tubes containing concentrations of half of the MIC of each one of the compounds alone (polyamine to be tested and reference drug) and one fourth of the MIC of each one in combination were also spread in LB or SC-ura plates (according to the microorganism considered in each case) and incubated at 37 °C or 30 °C. The visualisation of these plates was performed after 24 or 48 h, respectively. All these experiments were carried out in triplicate.

BY4741/YEplac195 = experiment: Checkerboard titration synergy, BY4741/YEplac195; format: cell-based, Saccharomyces cerevisiae; conditions: synergistic when FICI ≤0.5
Protocol: as §7, §8

[7] = Cytotoxicity, flow cytometry viability assay with propidium iodide; format: cell-based, human; conditions: human, Jurkat cells (human lymphocytic leukaemia, ATCC TIB-152), 24 h treatment, average of three experiments, read-out: IC50, cytotoxicity on the human Jurkat cell line
Protocol: The cytotoxicity of the compounds was assessed via flow cytometry with a viability assay using propidium iodide (PI), a DNA-binding fluorescent probe not permeant to live cells, which is commonly used to detect dead cells in a population. The human lymphocytic leukaemia Jurkat cell line (ATCC TIB-152) was obtained from the American Type Cell Culture (Sigma-Aldrich) and grown in suspension in an RPMI 1640 medium (Thermo Fisher Scientific, Waltham, MA, USA) supplemented with L-glutamine, antibiotics, and 10% heat-inactivated foetal calf serum (FCS, Thermo Fisher Scientific, Waltham, MA, USA). For the viability assay, cells were seeded in plastic 96-well plates at […] in an RPMI 1640 medium supplemented with 5% FCS. The cells were treated for 24 h with a range of concentrations of the test compounds or with the same volume of phosphate buffer (PBS) in control wells. After incubation, cell suspensions were washed, resuspended in 400 μL fresh medium, and incubated for 5 min at room temperature in the dark with 3.75 μM PI (Sigma-Aldrich). Cell viability was determined via flow cytometry using a Gallios flow cytometer (Beckman Coulter). PI fluorescence was excited with an argon-ion laser at 488 nm and collected through a 620/630 nm band-pass emission. Cellular events were discriminated from debris using forward scatter (FS) and side scatter (SS) signals. Cell aggregates were excluded from analysis based on FS-integral and FS-peak. The gates applied for population discrimination were set manually based on control samples. For each sample, 10,000 events were collected. For further analysis, the cytometric data were exported to Kaluza 2.1 software (Beckman Coulter, Brea, CA, USA). Dead cells were identified and quantified as PI-positive events. The cytotoxic potency of test compounds was quantified using their IC50 values, i.e., the compound concentration at which cell viability is inhibited by 50%, as calculated via curve fitting and determined with the correlation coefficient (R2) using GraphPad Prism 9.0 software. Experiments were carried out in triplicate.

E. coli JM101 = experiment: Minimal bactericidal concentration, E. coli; format: cell-based, Escherichia coli; conditions: Escherichia coli, JM101; overnight incubation, plating on LB; bacteriostatic if growth at 4 times the MIC
Protocol: as §6

BY4741/PDR5 = experiment: Checkerboard titration synergy, BY4741/PDR5; format: cell-based, Saccharomyces cerevisiae; conditions: synergistic when FICI ≤0.5
Protocol: as §7, §8

Structure (SMILES)	Lytic activity (OD600 over time) (S. aureus)	MIC [1] [µg/mL]	MIC (Escherichia coli JM101) [µg/mL]	MIC [2] [µg/mL]	MIC [3] [µg/mL]	also measured
CCCCCCCCCCCCOS(=O)(=O)[O-].[Na+] [SDS]						Intracellular ATP level relative to untreated cells (yeast cells; 0.1% (w/v)): 50–70%
C[C@H]1c2cccc(O)c2C(=O)C2=C(O)[C@]3(O)C(=O)C(C(N)=O)=C(O)[C@@H](N(C)C)[C@@H]3[C@@H](O)[C@@H]21 [Doxycycline, reference compound]	not the case	0.25	1			
C[C@@H]1[C@H](O)[C@@H](C)/C=C/C=C/C=C/C=C/C=C/C=C/C=C/[C@H](O[C@@H]2O[C@H](C)[C@@H](O)[C@H](N)[C@@H]2O)C[C@@H]2O[C@](O)(C[C@@H](O)C[C@@H](O)[C@H](O)CC[C@@H](O)C[C@@H](O)CC(=O)O[C@H]1C)C[C@H](O)[C@H]2C(=O)O [Amphotericin B, reference compound]				1	1	Intracellular ATP level relative to untreated cells (yeast cells; 50-fold the MIC): dramatic decrease
CC1(C)S[C@@H]2[C@H](NC(=O)[C@H](N)c3ccccc3)C(=O)N2[C@H]1C(=O)O [Ampicillin, reference compound]	cellular lysis	0.14	2			Lytic activity (OD600 over time) (E. coli [4]): OD600 significantly decreased
OC(Cn1cncn1)(Cn1cncn1)c1ccc(F)cc1F [Fluconazole, reference compound]				10	60	Intracellular ATP level relative to untreated cells (yeast cells; 30-fold the MIC): very reduced
NCCN1CCNCc2cccc(n2)CNCC1 [Compound 5b]		200	10	110	110	MIC [5]: 110 µg/mL (≈ 441 µM); Minimal fungicidal concentration (MFC), S. cerevisiae Strains (S. cerevisiae strains): Fungistatic; Synergy with Ciprofloxacin (E. coli [6]): synergy; Synergy with Amphotericin B (BY4741/YEplac195): -; Synergy with Cycloheximide (BY4741/YEplac195): positive results and +; Synergy with Fluconazole (BY4741/YEplac195): synergic and +; IC50 at 24 h [7]: 1250 µg/mL (≈ 5020 µM); MBC (E. coli JM101): 20 µg/mL (≈ 80.2 µM); Synergy with Amphotericin B (BY4741/PDR5): -; Synergy with Cycloheximide (BY4741/PDR5): positive results and +
